According to ChEMBL document CHEMBL1909046, “DrugMatrix in vitro pharmacology data”:

How the values were obtained:
[1] = molecular target: T1, Cysteinyl leukotriene receptor 1 (Homo sapiens, UniProt Q9Y271); format: cell membranes, Membrane; conditions: cho-k1; note: in other assays of this panel Not Active means under 50% inhibition at 10 µM
T1 sequence (Q9Y271 whole entry): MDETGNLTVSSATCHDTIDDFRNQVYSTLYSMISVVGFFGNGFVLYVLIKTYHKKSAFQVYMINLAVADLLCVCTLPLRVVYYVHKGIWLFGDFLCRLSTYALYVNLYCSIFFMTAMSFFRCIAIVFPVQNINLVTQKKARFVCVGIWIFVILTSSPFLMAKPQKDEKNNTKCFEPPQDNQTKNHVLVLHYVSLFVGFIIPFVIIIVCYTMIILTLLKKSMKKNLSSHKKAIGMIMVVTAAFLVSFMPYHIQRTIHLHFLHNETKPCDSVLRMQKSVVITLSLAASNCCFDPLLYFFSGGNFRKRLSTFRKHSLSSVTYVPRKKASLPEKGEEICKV

[2] = molecular target: Aldo-keto reductase family 1 member B1 (Rattus norvegicus, UniProt P07943); format: tissue-based, Lens of camera-type eye;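 note: inhibition of aldose reductase enzyme activity, measured with DL-glyceraldehyde as the substrate; in other assays of this panel Not Active means under 50% inhibition at 10 µM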
D(1A) dopamine receptor = D(1A) dopamine receptor (Homo sapiens, UniProt P21728); assay: DRUGMATRIX: Dopamine D1 radioligand binding (ligand: [3H] SCH-23390); format: cell membranes, CHO, Membrane; conditions: cho; Not Active = under 50% inhibition at 10 µM
Cytochrome P450 2C19 = Cytochrome P450 2C19 (Homo sapiens, UniProt P33261); conditions: bti-tn-5b1-4; note: in other assays of this panel Not Active means under 50% inhibition at 10 µM
[3] = molecular target: Voltage-gated inwardly rectifying potassium channel KCNH2 (Homo sapiens, UniProt Q12809); conditions: hek293; note: in other assays of this panel Not Active means under 50% inhibition at 10 µM
[4] = DRUGMATRIX: Calcium Channel Type L, Benzothiazepine radioligand binding (ligand: [3H] Diltiazem); format: cell membranes, Rattus norvegicus, Wistar, Brain, Membrane; conditions: Not Active = under 50% inhibition at 10 µM
D(4) dopamine receptor = molecular target: T2, D(4) dopamine receptor (Homo sapiens, UniProt P21917); assay: DRUGMATRIX: Dopamine D4.2 radioligand binding (ligand: [3H] Spiperone); format: cell membranes, CHO-K1, Membrane; conditions: cho-k1; Not Active = under 50% inhibition at 10 µM
T2 sequence (P21917 whole entry): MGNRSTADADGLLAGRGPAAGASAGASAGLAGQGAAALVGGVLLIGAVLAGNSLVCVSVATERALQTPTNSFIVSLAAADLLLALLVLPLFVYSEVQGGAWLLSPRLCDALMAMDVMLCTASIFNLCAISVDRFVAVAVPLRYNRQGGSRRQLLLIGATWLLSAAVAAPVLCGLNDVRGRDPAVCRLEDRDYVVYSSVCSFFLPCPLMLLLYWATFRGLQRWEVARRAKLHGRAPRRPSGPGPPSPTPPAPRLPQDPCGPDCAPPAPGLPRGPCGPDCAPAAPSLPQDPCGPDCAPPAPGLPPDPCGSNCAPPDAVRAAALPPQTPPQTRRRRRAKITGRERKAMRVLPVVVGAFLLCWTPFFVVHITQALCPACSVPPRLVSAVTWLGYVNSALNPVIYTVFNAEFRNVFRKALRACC

Chain of Voltage-gated inwardly rectifying potassium channel KCNH2 (Q12809 whole entry): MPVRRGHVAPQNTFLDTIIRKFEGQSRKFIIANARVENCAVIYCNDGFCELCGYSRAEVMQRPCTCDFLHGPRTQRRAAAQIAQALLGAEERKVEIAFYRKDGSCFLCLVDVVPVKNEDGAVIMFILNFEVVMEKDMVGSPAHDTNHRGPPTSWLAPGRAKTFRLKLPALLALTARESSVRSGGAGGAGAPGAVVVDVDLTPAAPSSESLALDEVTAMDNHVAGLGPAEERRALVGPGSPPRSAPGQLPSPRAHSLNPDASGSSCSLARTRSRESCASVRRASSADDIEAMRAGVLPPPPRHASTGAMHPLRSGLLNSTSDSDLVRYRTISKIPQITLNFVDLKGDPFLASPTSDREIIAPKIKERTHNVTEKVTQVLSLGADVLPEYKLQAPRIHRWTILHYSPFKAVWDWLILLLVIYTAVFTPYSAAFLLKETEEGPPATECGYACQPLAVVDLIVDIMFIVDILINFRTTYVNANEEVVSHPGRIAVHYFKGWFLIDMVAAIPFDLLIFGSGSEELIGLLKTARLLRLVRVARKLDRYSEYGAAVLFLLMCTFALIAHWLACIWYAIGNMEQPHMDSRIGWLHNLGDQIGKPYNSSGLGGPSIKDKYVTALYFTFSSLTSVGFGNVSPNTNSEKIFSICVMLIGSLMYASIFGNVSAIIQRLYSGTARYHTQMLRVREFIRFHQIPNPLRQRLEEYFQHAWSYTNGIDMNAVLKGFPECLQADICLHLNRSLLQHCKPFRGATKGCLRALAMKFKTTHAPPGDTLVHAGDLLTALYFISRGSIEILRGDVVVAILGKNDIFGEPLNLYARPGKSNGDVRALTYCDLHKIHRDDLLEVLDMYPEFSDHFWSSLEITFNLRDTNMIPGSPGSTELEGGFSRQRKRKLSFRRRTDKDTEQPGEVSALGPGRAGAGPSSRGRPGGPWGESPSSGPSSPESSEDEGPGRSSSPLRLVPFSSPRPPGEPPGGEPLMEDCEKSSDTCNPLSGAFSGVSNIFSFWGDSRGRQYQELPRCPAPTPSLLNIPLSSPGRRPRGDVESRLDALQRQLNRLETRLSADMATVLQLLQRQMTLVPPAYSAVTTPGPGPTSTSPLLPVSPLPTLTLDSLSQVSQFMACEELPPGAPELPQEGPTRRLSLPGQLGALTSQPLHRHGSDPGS
Chain of D(1A) dopamine receptor (P21728 whole entry): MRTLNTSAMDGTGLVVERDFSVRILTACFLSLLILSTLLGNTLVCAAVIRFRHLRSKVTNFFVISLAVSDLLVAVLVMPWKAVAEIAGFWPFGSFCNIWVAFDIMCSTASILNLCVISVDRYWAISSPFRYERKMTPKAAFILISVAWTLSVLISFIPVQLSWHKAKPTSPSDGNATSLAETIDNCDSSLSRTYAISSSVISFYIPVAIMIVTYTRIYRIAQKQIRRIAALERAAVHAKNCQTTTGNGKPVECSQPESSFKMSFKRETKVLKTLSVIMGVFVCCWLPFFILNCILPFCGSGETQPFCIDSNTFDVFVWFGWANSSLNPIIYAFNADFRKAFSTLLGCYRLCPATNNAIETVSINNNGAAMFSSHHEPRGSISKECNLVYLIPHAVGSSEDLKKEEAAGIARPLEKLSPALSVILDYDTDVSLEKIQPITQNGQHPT
Chain of Cytochrome P450 2C19 (P33261 whole entry): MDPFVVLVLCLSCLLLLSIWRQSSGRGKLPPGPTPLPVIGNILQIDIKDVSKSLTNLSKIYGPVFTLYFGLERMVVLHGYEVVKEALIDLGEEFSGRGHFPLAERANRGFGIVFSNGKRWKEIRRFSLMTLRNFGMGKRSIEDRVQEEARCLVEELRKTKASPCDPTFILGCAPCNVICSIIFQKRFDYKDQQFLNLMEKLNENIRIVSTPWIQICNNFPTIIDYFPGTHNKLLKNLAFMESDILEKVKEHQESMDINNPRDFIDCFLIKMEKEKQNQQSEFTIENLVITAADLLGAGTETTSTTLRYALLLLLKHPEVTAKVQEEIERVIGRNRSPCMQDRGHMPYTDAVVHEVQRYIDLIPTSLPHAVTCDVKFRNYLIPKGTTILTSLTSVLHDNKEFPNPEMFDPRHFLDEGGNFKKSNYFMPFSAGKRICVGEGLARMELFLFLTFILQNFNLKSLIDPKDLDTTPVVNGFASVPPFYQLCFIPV

CC(c1cc2ccccc2s1)N(O)C(N)=O (stereo not drawn) [ZILEUTON]
Not Active: IC50 [1] | IC50 [2] | IC50 (D(1A) dopamine receptor) | IC50 (Cytochrome P450 2C19) | Ki (Cytochrome P450 2C19) | IC50 [3] | Ki [3] | IC50 [4] | Ki [4] | IC50 (D(4) dopamine receptor)

MANGANESE CHLORIDE ANHYDROUS
Not Active: IC50 [1] | Ki [1] | IC50 [2] | Ki [2] | IC50 (D(1A) dopamine receptor) | Ki (D(1A) dopamine receptor) | IC50 (Cytochrome P450 2C19) | Ki (Cytochrome P450 2C19) | IC50 [3] | Ki [3] | IC50 [4] | Ki [4] | IC50 (D(4) dopamine receptor) | Ki (D(4) dopamine receptor)

SODIUM ORTHOVANAD
Not Active: IC50 [1] | Ki [1] | IC50 [2] | Ki [2] | IC50 (D(1A) dopamine receptor) | Ki (D(1A) dopamine receptor) | IC50 (Cytochrome P450 2C19) | Ki (Cytochrome P450 2C19) | IC50 [3] | Ki [3] | IC50 [4] | Ki [4] | IC50 (D(4) dopamine receptor) | Ki (D(4) dopamine receptor)
